Measurements as given in PMC5218480 (PLoS ONE, 2017).

Tested on: MV-4-11 cells
Test: Gene expression microarray analysis (Affymetrix PrimeView) and GSEA
Assay type: cell-based, human
Set-up: RFU PODN (11730768_x_at) / Fold change /veh PODN (11730768_x_at) / RFU LINC00158 (11744669_a_at) / Fold change /veh LINC00158 (11744669_a_at) / RFU DUSP10 (11751237_a_at) / Fold change /veh DUSP10 (11751237_a_at) / RFU ID3 (11757404_x_at) / Fold change /veh ID3 (11757404_x_at) / RFU PLEKHG5 (11737974_s_at) / Fold change /veh PLEKHG5 (11737974_s_at) / RFU LRRC4B (11730491_at) / Fold change /veh LRRC4B (11730491_at) / RFU GIMAP4 (11747438_a_at) / Fold change /veh GIMAP4 (11747438_a_at) / RFU KRT8 (11758183_x_at) / Fold change /veh KRT8 (11758183_x_at) / RFU CNN1 (11734310_a_at) / Fold change /veh CNN1 (11734310_a_at) / RFU VPS37D (11726825_at) / Fold change /veh VPS37D (11726825_at) / RFU C10orf10 (11716522_x_at) / Fold change /veh C10orf10 (11716522_x_at) / RFU KIR2DL2 /// KIR2DL4 /// KIR2DL5A /// KIR2DL5B /// KIR2DS1 /// KIR2DS2 /// KIR2DS3 /// KIR2DS4 /// KIR3DL3 /// KIR3DL3 /// KIR3DS1 (11738374_at) / Fold change /veh KIR2DL2 /// KIR2DL4 /// KIR2DL5A /// KIR2DL5B /// KIR2DS1 /// KIR2DS2 /// KIR2DS3 /// KIR2DS4 /// KIR3DL3 /// KIR3DL3 /// KIR3DS1 (11738374_at) / RFU C1QL1 (11718748_at) / Fold change /veh C1QL1 (11718748_at) / RFU TMPRSS4 (11747572_a_at) / Fold change /veh TMPRSS4 (11747572_a_at) / RFU HAMP (11756126_x_at) / Fold change /veh HAMP (11756126_x_at) / RFU RNFT2 (11725882_a_at) / Fold change /veh RNFT2 (11725882_a_at) / RFU NR4A2 (11747474_a_at) / Fold change /veh NR4A2 (11747474_a_at) / RFU ABCC12 (11746883_a_at) / Fold change /veh ABCC12 (11746883_a_at) / RFU TMEM136 (11760407_x_at) / Fold change /veh TMEM136 (11760407_x_at) / RFU CLDN22 /// WWC2 (11732394_at) / Fold change /veh CLDN22 /// WWC2 (11732394_at) / RFU HLA-DPB1 (11760878_x_at) / Fold change /veh HLA-DPB1 (11760878_x_at) / RFU SPINT1 (11716480_a_at) / Fold change /veh SPINT1 (11716480_a_at) / RFU GAP43 (11754022_s_at) / Fold change /veh GAP43 (11754022_s_at) / RFU A4GNT (11735810_at) / Fold change /veh A4GNT (11735810_at) / RFU PRB3 (11715151_x_at) / Fold change /veh PRB3 (11715151_x_at) / RFU TUBB4B (11761932_at) / Fold change /veh TUBB4B (11761932_at) / RFU CAPN14 (11732068_a_at) / Fold change /veh CAPN14 (11732068_a_at) / RFU TMCC2 (11721928_a_at) / Fold change /veh TMCC2 (11721928_a_at) / RFU IRGQ (11745062_a_at) / Fold change /veh IRGQ (11745062_a_at) / RFU FAM174B (11720279_a_at) / Fold change /veh FAM174B (11720279_a_at) / RFU TMPRSS4 (11748680_a_at) / Fold change /veh TMPRSS4 (11748680_a_at) / RFU FAM212B (11763350_a_at) / Fold change /veh FAM212B (11763350_a_at) / RFU PLEKHG5 (11743358_a_at) / Fold change /veh PLEKHG5 (11743358_a_at) / RFU ZSCAN30 (11745921_a_at) / Fold change /veh ZSCAN30 (11745921_a_at) / RFU CMKLR1 (11741424_a_at) / Fold change /veh CMKLR1 (11741424_a_at) / RFU LOC101060620 /// MAPK8IP1 (11723275_at) / Fold change /veh LOC101060620 /// MAPK8IP1 (11723275_at) / RFU SPTSSB (11747773_x_at) / Fold change /veh SPTSSB (11747773_x_at) / RFU PRSS12 (11739890_at) / Fold change /veh PRSS12 (11739890_at) / RFU BIN1 (11741810_x_at) / Fold change /veh BIN1 (11741810_x_at) / RFU WNT11 (11732464_a_at) / Fold change /veh WNT11 (11732464_a_at) / RFU C10orf10 (11716521_a_at) / Fold change /veh C10orf10 (11716521_a_at) / RFU C5orf56 (11738089_at) / Fold change /veh C5orf56 (11738089_at) / RFU CYB561 (11721691_x_at) / Fold change /veh CYB561 (11721691_x_at) / RFU ANKRD19P (11752326_a_at) / Fold change /veh ANKRD19P (11752326_a_at) / RFU OR2T12 /// OR2T33 /// OR2T8 (11738714_s_at) / Fold change /veh OR2T12 /// OR2T33 /// OR2T8 (11738714_s_at) / RFU VCAN (11748164_a_at) / Fold change /veh VCAN (11748164_a_at) / RFU JSRP1 (11732532_at) / Fold change /veh JSRP1 (11732532_at) / RFU KRTAP10-11 (11738290_x_at) / Fold change /veh KRTAP10-11 (11738290_x_at) / RFU MYO3A (11730013_a_at) / Fold change /veh MYO3A (11730013_a_at) / RFU EBF3 (11725865_a_at) / Fold change /veh EBF3 (11725865_a_at) / RFU CAMK2N1 (11719241_x_at) / Fold change /veh CAMK2N1 (11719241_x_at) / RFU C5orf56 (11738088_a_at) / Fold change /veh C5orf56 (11738088_a_at) / RFU OLFML3 (11715873_a_at) / Fold change /veh OLFML3 (11715873_a_at) / RFU LOC100653217 /// NTM (11731650_a_at) / Fold change /veh LOC100653217 /// NTM (11731650_a_at) / RFU MAPK11 (11762145_a_at) / Fold change /veh MAPK11 (11762145_a_at) / RFU FIZ1 (11724087_x_at) / Fold change /veh FIZ1 (11724087_x_at) / RFU OASL (11726364_x_at) / Fold change /veh OASL (11726364_x_at) / RFU SOX15 (11748057_x_at) / Fold change /veh SOX15 (11748057_x_at) / RFU CD79A (11719716_a_at) / Fold change /veh CD79A (11719716_a_at) / RFU HIST1H1D (11736915_at) / Fold change /veh HIST1H1D (11736915_at) / RFU CASKIN2 (11723855_a_at) / Fold change /veh CASKIN2 (11723855_a_at) / RFU LOC730098 (11760151_x_at) / Fold change /veh LOC730098 (11760151_x_at) / RFU OR4N2 (11742367_at) / Fold change /veh OR4N2 (11742367_at) / RFU PRRT2 (11749266_a_at) / Fold change /veh PRRT2 (11749266_a_at) / RFU SNX32 (11753110_a_at) / Fold change /veh SNX32 (11753110_a_at) / RFU CDHR5 (11726645_a_at) / Fold change /veh CDHR5 (11726645_a_at) / RFU RCAN1 (11760418_a_at) / Fold change /veh RCAN1 (11760418_a_at) / RFU FAM167A (11723789_a_at) / Fold change /veh FAM167A (11723789_a_at) / RFU FAM26E (11764081_at) / Fold change /veh FAM26E (11764081_at) / RFU ISYNA1 (11749810_s_at) / Fold change /veh ISYNA1 (11749810_s_at) / RFU ACY1 (11761880_at) / Fold change /veh ACY1 (11761880_at) / RFU 11764098_at / Fold change /veh 11764098_at / RFU SAMD14 (11745864_x_at) / Fold change /veh SAMD14 (11745864_x_at) / RFU NPB (11741838_a_at) / Fold change /veh NPB (11741838_a_at) / RFU TMPRSS6 (11731388_a_at) / Fold change /veh TMPRSS6 (11731388_a_at) / RFU KRTAP10-2 (11738614_at) / Fold change /veh KRTAP10-2 (11738614_at) / RFU ARHGAP8 /// PRR5-ARHGAP8 (11727945_x_at) / Fold change /veh ARHGAP8 /// PRR5-ARHGAP8 (11727945_x_at) / RFU KRTAP5-7 /// NADSYN1 (11734609_at) / Fold change /veh KRTAP5-7 /// NADSYN1 (11734609_at) / RFU RASL12 (11751679_a_at) / Fold change /veh RASL12 (11751679_a_at) / RFU CDKN2B (11736163_a_at) / Fold change /veh CDKN2B (11736163_a_at) / RFU PRF1 (11729649_at) / Fold change /veh PRF1 (11729649_at) / RFU, ZNF638 /// ZNF638-IT1 / Fold change vs veh, ZNF638 /// ZNF638-IT1 / RFU, PANK3 / Fold change vs veh, PANK3 / RFU, SH3YL1 / Fold change vs veh, SH3YL1 / RFU, ZEB2 / Fold change vs veh, ZEB2 / RFU, NRIP1 / Fold change vs veh, NRIP1 / RFU, PTTG1IP / Fold change vs veh, PTTG1IP / RFU, CAPN2 / Fold change vs veh, CAPN2 / RFU, MED14 / Fold change vs veh, MED14 / RFU, SNORA58 / Fold change vs veh, SNORA58 / RFU, C1orf63 / Fold change vs veh, C1orf63 / RFU, LRRFIP1 / Fold change vs veh, LRRFIP1 / RFU, NDUFAF7 / Fold change vs veh, NDUFAF7 / RFU, SLC12A2 / Fold change vs veh, SLC12A2 / RFU, IBTK / Fold change vs veh, IBTK / RFU, ESF1 / Fold change vs veh, ESF1 / Fold change vs veh, TMEM50B / RFU, TAOK1 / Fold change vs veh, TAOK1 / RFU, ACBD3 / Fold change vs veh, ACBD3 / RFU, TMA16 / Fold change vs veh, TMA16 / RFU, RWDD3 / Fold change vs veh, RWDD3 / RFU, BCAT1 / Fold change vs veh, BCAT1 / RFU, EDEM3 / Fold change vs veh, EDEM3 / RFU, TMEM33 / Fold change vs veh, TMEM33 / RFU, WDR75 / Fold change vs veh, WDR75 / RFU, AHCTF1 / Fold change vs veh, AHCTF1 / RFU, TFRC / Fold change vs veh, TFRC / RFU, ZDHHC17 / Fold change vs veh, ZDHHC17 / RFU, NOM1 / Fold change vs veh, NOM1 / RFU, ARL8B / Fold change vs veh, ARL8B / RFU, ZBTB11 / Fold change vs veh, ZBTB11 / RFU, TAMM41 / Fold change vs veh, TAMM41 / RFU, KIAA1704 /// LOC100996395 / Fold change vs veh, KIAA1704 /// LOC100996395 / RFU, ING1 / Fold change vs veh, ING1 / RFU, TRMT61B / Fold change vs veh, TRMT61B / RFU, FUBP3 / Fold change vs veh, FUBP3 / RFU, TP53 / Fold change vs veh, TP53 / RFU, TNKS2 / Fold change vs veh, TNKS2 / RFU, ZFP14 / Fold change vs veh, ZFP14 / RFU, ACTR2 / Fold change vs veh, ACTR2 / RFU, PPP3R1 / Fold change vs veh, PPP3R1 / RFU, PIK3R1 / Fold change vs veh, PIK3R1 / RFU, HNRNPA1 / Fold change vs veh, HNRNPA1 / RFU, RNF170 / Fold change vs veh, RNF170 / RFU, ZNF28 / Fold change vs veh, ZNF28 / RFU, RNGTT / Fold change vs veh, RNGTT / RFU, OGT / Fold change vs veh, OGT / RFU, BRD1 / Fold change vs veh, BRD1 / RFU, MARS / Fold change vs veh, MARS / RFU, ZNF655 / Fold change vs veh, ZNF655 / RFU, FAHD1 / Fold change vs veh, FAHD1 / RFU, BDP1 / Fold change vs veh, BDP1 / RFU, LRRCC1 / Fold change vs veh, LRRCC1 / RFU, ARID1A / Fold change vs veh, ARID1A / RFU, ZNF146 / Fold change vs veh, ZNF146 / RFU, ZNF330 / Fold change vs veh, ZNF330 / RFU, GPN3 / Fold change vs veh, GPN3 / RFU, C9orf123 / Fold change vs veh, C9orf123 / RFU, N4BP2L2 / Fold change vs veh, N4BP2L2 / RFU, ARFIP1 / Fold change vs veh, ARFIP1 / RFU, FAM179B / Fold change vs veh, FAM179B / RFU, BCL10 / Fold change vs veh, BCL10 / RFU, UHRF1BP1L / Fold change vs veh, UHRF1BP1L / RFU, BET1 / Fold change vs veh, BET1 / RFU, CNOT2 / Fold change vs veh, CNOT2 / RFU, ZNF268 / Fold change vs veh, ZNF268 / Fold change vs veh, ZNF507 / RFU, DGCR2 / Fold change vs veh, DGCR2 / RFU, WDSUB1 / Fold change vs veh, WDSUB1 / Fold change vs veh, HSP90B1 /// MIR3652 / RFU, ADSS / Fold change vs veh, ADSS / RFU, GK / Fold change vs veh, GK / RFU, ZNF148 / Fold change vs veh, ZNF148 / RFU, TAF9 / Fold change vs veh, TAF9 / RFU, SLC1A5 / Fold change vs veh, SLC1A5 / RFU, SLMO2 / Fold change vs veh, SLMO2 / RFU, ABCC4 / Fold change vs veh, ABCC4 / RFU, LOC101060439 /// RAP1B / Fold change vs veh, LOC101060439 /// RAP1B / RFU, RFX7 / Fold change vs veh, RFX7 / RFU, GTPBP10 / Fold change vs veh, GTPBP10 / RFU, CNEP1R1 / Fold change vs veh, CNEP1R1 / RFU, BIVM-ERCC5 /// ERCC5 / Fold change vs veh, BIVM-ERCC5 /// ERCC5 / RFU, ILF3 / Fold change vs veh, ILF3 / RFU 11762660_at / Fold change /veh 11762660_at / RFU VCAN (11757783_s_at) / Fold change /veh VCAN (11757783_s_at) / RFU DDX43 (11728927_at) / Fold change /veh DDX43 (11728927_at) / RFU KRT8 (11758188_x_at) / Fold change /veh KRT8 (11758188_x_at) / RFU NKD1 (11759106_at) / Fold change /veh NKD1 (11759106_at) / RFU SRD5A1 (11742802_a_at) / Fold change /veh SRD5A1 (11742802_a_at) / RFU TPSAB1 /// TPSB2 (11721975_s_at) / Fold change /veh TPSAB1 /// TPSB2 (11721975_s_at) / RFU GSTM3 (11746129_a_at) / Fold change /veh GSTM3 (11746129_a_at) / RFU IL23R (11737362_x_at) / Fold change /veh IL23R (11737362_x_at) / RFU TMEM51 (11727254_a_at) / Fold change /veh TMEM51 (11727254_a_at) / RFU PIWIL2 (11732686_x_at) / Fold change /veh PIWIL2 (11732686_x_at) / RFU ORM1 (11744905_x_at) / Fold change /veh ORM1 (11744905_x_at) / RFU CCDC152 (11743942_at) / Fold change /veh CCDC152 (11743942_at) / RFU ECM1 (11717891_a_at) / Fold change /veh ECM1 (11717891_a_at) / RFU IL23R (11748794_a_at) / Fold change /veh IL23R (11748794_a_at) / RFU TNFAIP8L3 (11732012_x_at) / Fold change /veh TNFAIP8L3 (11732012_x_at) / RFU MBOAT4 (11741988_at) / Fold change /veh MBOAT4 (11741988_at) / RFU 11764193_at / Fold change /veh 11764193_at / RFU TMEM53 (11763286_at) / Fold change /veh TMEM53 (11763286_at) / RFU MAGEB2 (11727129_at) / Fold change /veh MAGEB2 (11727129_at) / RFU TMEM200A (11744735_a_at) / Fold change /veh TMEM200A (11744735_a_at) / RFU CCDC152 (11751479_a_at) / Fold change /veh CCDC152 (11751479_a_at) / RFU FAM211A (11726209_a_at) / Fold change /veh FAM211A (11726209_a_at) / RFU RGS16 (11746705_a_at) / Fold change /veh RGS16 (11746705_a_at) / RFU VCAN (11755009_s_at) / Fold change /veh VCAN (11755009_s_at) / RFU RHOB (11743442_s_at) / Fold change /veh RHOB (11743442_s_at) / RFU RGS16 (11720943_a_at) / Fold change /veh RGS16 (11720943_a_at) / RFU RGS16 (11720944_at) / Fold change /veh RGS16 (11720944_at) / RFU, VPS4B / Fold change vs veh, VPS4B / RFU, CREB1 / Fold change vs veh, CREB1 / RFU, DNAJC13 / Fold change vs veh, DNAJC13 / RFU, GNAQ / Fold change vs veh, GNAQ / RFU, CDK5R1 / Fold change vs veh, CDK5R1 / RFU, ZRANB3 / Fold change vs veh, ZRANB3 / RFU, CUL4A / Fold change vs veh, CUL4A / RFU, CCNY / Fold change vs veh, CCNY / RFU, UFL1 / Fold change vs veh, UFL1 / RFU, COG3 / Fold change vs veh, COG3 / RFU, DIAPH2 / Fold change vs veh, DIAPH2 / RFU, SKA2 / Fold change vs veh, SKA2 / RFU, AFF3 / Fold change vs veh, AFF3 / RFU, LMF1 / Fold change vs veh, LMF1 / RFU, IPO11 / Fold change vs veh, IPO11 / RFU, DFFB / Fold change vs veh, DFFB / RFU, FOXP1 / Fold change vs veh, FOXP1 / RFU, CARD8 / Fold change vs veh, CARD8 / RFU, STRN3 / Fold change vs veh, STRN3 / RFU, ADK / Fold change vs veh, ADK / RFU, RASSF2 / Fold change vs veh, RASSF2 / RFU, WIPF1 / Fold change vs veh, WIPF1 / RFU, LARP1B / Fold change vs veh, LARP1B / RFU, RASA1 / Fold change vs veh, RASA1 / RFU, RB1 / Fold change vs veh, RB1 / RFU, PPFIA1 / Fold change vs veh, PPFIA1 / RFU, MAT2A / Fold change vs veh, MAT2A / RFU, CCT5 / Fold change vs veh, CCT5 / RFU, WDR92 / Fold change vs veh, WDR92 / RFU, CUX1 / Fold change vs veh, CUX1 / RFU, TTC7A / Fold change vs veh, TTC7A / RFU, TMEM135 / Fold change vs veh, TMEM135 / RFU, DEPTOR / Fold change vs veh, DEPTOR / RFU, CPM / Fold change vs veh, CPM / RFU, DNAJB6 / Fold change vs veh, DNAJB6 / RFU, CACNA2D3 / Fold change vs veh, CACNA2D3 / RFU, DTX4 / Fold change vs veh, DTX4 / RFU, TFCP2 / Fold change vs veh, TFCP2 / RFU, GMCL1 /// GMCL1P1 / Fold change vs veh, GMCL1 /// GMCL1P1 / RFU, AEBP2 / Fold change vs veh, AEBP2 / RFU, SNHG1 /// SNORD22 /// SNORD25 /// SNORD26 /// SNORD27 /// SNORD28 /// SNORD29 /// SNORD31 / Fold change vs veh, SNHG1 /// SNORD22 /// SNORD25 /// SNORD26 /// SNORD27 /// SNORD28 /// SNORD29 /// SNORD31 / Fold change (Aza/veh), C12orf56 (ProbeSet 11735607_a_at) / Fold change (ACY-1035/veh), C12orf56 (ProbeSet 11735607_a_at) / Fold change (Aza/veh), FGFR1OP (ProbeSet 11751329_s_at) / Fold change (ACY-1035/veh), FGFR1OP (ProbeSet 11751329_s_at) / Fold change (Aza/veh), VPS36 (ProbeSet 11739960_a_at) / Fold change (ACY-1035/veh), VPS36 (ProbeSet 11739960_a_at) / RFU SYPL1 (11715823_x_at) / Fold change /veh SYPL1 (11715823_x_at) / RFU IGFBP7 (11715501_s_at) / Fold change /veh IGFBP7 (11715501_s_at) / RFU REEP3 (11722064_at) / Fold change /veh REEP3 (11722064_at) / RFU IGLL1 (11728026_x_at) / Fold change /veh IGLL1 (11728026_x_at): dose or concentration left out as unconfirmed
Details: ProbeSet 11743882_a_at; LIST D

Structure (SMILES): Nc1ccc(-c2cccs2)cc1NC(=O)c1ccc2c(c1)cc(C1CC1)n2CCN1CCOCC1 [ACY-1035]
- Fold change vs veh, STRN3: 0.92
